Source: ChEMBL document CHEMBL1146534, “Synthetic method and biological activities of cis-fused alpha-methylene gamma-lactones” (2003)

Key:
Type in all cases: functional
Venturia inaequalis [1] = assay: Prevention of Venturia inaequalis-mediated scab of apple disease at 500 ppm by Pot test
P388 [2] = assay: Cytotoxicity against mouse P388 cells assessed as cell growth inhibitory ratio at 1 ug/mL after 48 hrs relative to control; set-up: scale not given: the % may be the effect or the level left
Pythium aphanidermatum = assay: Prevention of Pythium aphanidermatum-mediated damping off of cucumber disease at 500 ppm/20 mL per pot after 14 days at 25 degC under green house by Pot test
P388 [3] = assay: Cytotoxicity against mouse P388 cells assessed as cell growth inhibitory ratio at 0.1 ug/mL after 48 hrs relative to control; set-up: scale not given: the % may be the effect or the level left
P388 [4] = assay: Cytotoxicity against mouse P388 cells assessed as cell growth inhibitory ratio at 10 ug/mL after 48 hrs relative to control; set-up: scale not given: the % may be the effect or the level left
Blumeria graminis = assay: Prevention of Erysiphe graminis-mediated powdery mildew of wheat disease at 500 ppm after 10 days at 22 deg C under fluorescent lamp by Pot test
Rhizoctonia solani = assay: Prevention of Rhizoctonia solani-mediated sheath blight of rice disease at 500 ppm after 4 days at 28 degC by Pot test
Venturia inaequalis [5] = assay: Antimicrobial activity against Venturia inaequalis at 200 ppm after 11 days at 18 degC
Pyrenophora graminea [6] = assay: Antimicrobial activity against Pyrenophora graminea at 200 ppm after 4 days at 28 degC
Pyrenophora graminea [7] = assay: Antimicrobial activity against Pyrenophora graminea at 50 ppm after 4 days at 28 degC
Rhynchosporium secalis [8] = assay: Antimicrobial activity against Rhynchosporium secalis at 100 ppm after 11 days at 18 degC
Alternaria [9] = assay: Antimicrobial activity against Alternaria kikuchiana at 50 ppm after 4 days at 28 degC
Mycosphaerella [10] = assay: Antimicrobial activity against Mycosphaerella melonis at 100 ppm after 4 days at 28 degC
Alternaria [11] = assay: Antimicrobial activity against Alternaria kikuchiana at 100 ppm after 4 days at 28 degC
Pyrenophora graminea [12] = assay: Antimicrobial activity against Pyrenophora graminea at 100 ppm after 4 days at 28 degC
Mycosphaerella [13] = assay: Antimicrobial activity against Mycosphaerella melonis at 50 ppm after 4 days at 28 degC
Rhynchosporium secalis [14] = assay: Antimicrobial activity against Rhynchosporium secalis at 50 ppm after 11 days at 18 degC
Rhynchosporium secalis [15] = assay: Antimicrobial activity against Rhynchosporium secalis at 200 ppm after 11 days at 18 degC
Mycosphaerella [16] = assay: Antimicrobial activity against Mycosphaerella melonis at 200 ppm after 4 days at 28 degC
Alternaria [17] = assay: Antimicrobial activity against Alternaria kikuchiana at 200 ppm after 4 days at 28 degC
Venturia inaequalis [18] = assay: Antimicrobial activity against Venturia inaequalis at 100 ppm after 11 days at 18 degC
Venturia inaequalis [19] = assay: Antimicrobial activity against Venturia inaequalis at 50 ppm after 11 days at 18 degC

SMILES | Activity (Venturia inaequalis [1]) | Activity (P388 [2]) | Activity (Pythium aphanidermatum) | Activity (P388 [3]) | Activity (P388 [4]) | Activity (Blumeria graminis) | Activity (Rhizoctonia solani) | also measured
C=C1C(=O)O[C@H]2CCCCC[C@@H]12 | 90% | 76% | 0% | 9% | 102% | 0% | 0% | –
C=C1C(=O)O[C@H]2CC[C@H](C)CC[C@@H]12 | 0% | 50% | 100% | 15% | 102% | 0% | 0% | –
C=C1C(=O)O[C@H]2CC[C@@H](C)CC[C@@H]12 | 0% | 69% | 70% | 38% | 101% | 0% | 0% | –
C=C1C(=O)O[C@H]2[C@@H](O)CCCC[C@@H]12 | 0% | 40% | 100% | 11% | 100% | 50% | 50% | Activity (Venturia inaequalis [5]): 0%; Activity (Pyrenophora graminea [6]): 50%; Activity (Pyrenophora graminea [7]): 0%; Activity (Rhynchosporium secalis [8]): 60%; Activity (Alternaria [9]): 0%; Activity (Mycosphaerella [10]): 80%; Activity (Alternaria [11]): 20%; Activity (Pyrenophora graminea [12]): 0%; Activity (Mycosphaerella [13]): 70%; Activity (Rhynchosporium secalis [14]): 30%; Activity (Rhynchosporium secalis [15]): 100%; Activity (Mycosphaerella [16]): 100%; Activity (Alternaria [17]): 40%; Activity (Venturia inaequalis [18]): 50%
CC1=C2CCCCC[C@@H]2OC1=O | – | 4% | – | 7% | 43% | – | – | –
O=C1C[C@@H]2CCCC[C@H](O)[C@@H]2O1 | 0% | – | 0% | – | – | 90% | 0% | Activity (Venturia inaequalis [5]): 0%; Activity (Pyrenophora graminea [6]): 0%; Activity (Pyrenophora graminea [7]): 0%; Activity (Rhynchosporium secalis [8]): 0%; Activity (Alternaria [9]): 0%; Activity (Mycosphaerella [10]): 0%; Activity (Alternaria [11]): 0%; Activity (Pyrenophora graminea [12]): 0%; Activity (Mycosphaerella [13]): 0%; Activity (Rhynchosporium secalis [14]): 0%; Activity (Venturia inaequalis [19]): 0%; Activity (Rhynchosporium secalis [15]): 0%; Activity (Mycosphaerella [16]): 0%; Activity (Alternaria [17]): 0%; Activity (Venturia inaequalis [18]): 0%
C=C1C(=O)O[C@H]2[C@@H](OC(C)=O)CCCC[C@@H]12 | 0% | 21% | 100% | 9% | 102% | 30% | 30% | –
